Measured values taken from patent US20150141411A1, “SUBSTITUTED 3,4-DIHYDRO-2H-PYRIDO[1,2-A]PYRAZINE-1,6-DIONE DERIVATIVES USEFUL FOR THE TREATMENT OF (INTER ALIA) ALZHEIMER'S DISEASE” (Janssen Pharmaceuticals, Inc., priority 2012, published 2015).

How the values were obtained:
[1] = test system: Aβ40; test: In vivo efficacy: brain soluble Aβ40 in non-transgenic rodents (MSD electrochemiluminescence multiplex); parameters: species or system mouse; conditions: Mus musculus, po, 4 h, dose 30 mg/kg oral dosing, brain soluble fraction, animals sacrificed after 4 h, untreated animals (Ctrl) set at 100, read-out: Aβ40 (% vs Ctrl)_Mean
From the text: (§1) To determine whether acute administration of an Aβ42 lowering agent would reduce Aβ42 levels in vivo, non-transgenic rodents, e.g. mice or rats were used. Animals treated with the Aβ42 lowering agent were examined and compared to those untreated or treated with vehicle and brain levels of soluble Aβ42, Aβ40, Aβ38, and Aβ37 were quantitated by Meso Scale Discovery's (MSD) electrochemiluminescence detection technology. Treatment periods varied from hours (h) to days and were adjusted based on the results of the Aβ42 lowering once a time course of onset of effect could be established.
(§2) A typical protocol for measuring Aβ42 lowering in vivo is shown but it is only one of many variations that could be used to optimize the levels of detectable Aβ. For example, Aβ42 lowering compounds were formulated in 20% of Captisol® (a sulfo-butyl ether of β-cyclodextrin) in water or 20% hydroxypropyl βcyclodextrin. The Aβ42 lowering agents were administered as a single oral dose or by any acceptable route of administration to overnight fasted animals. After 4 h, the animals were sacrificed and Aβ42 levels were analysed.
(§3) Blood was collected by decapitation and exsanguinations in EDTA-treated collection tubes. Blood was centrifuged at 1900 g for 10 minutes (min) at 4° C. and the plasma recovered and flash frozen for later analysis. The brain was removed from the cranium and hindbrain. The cerebellum was removed and the left and right hemisphere were separated. The left hemisphere was stored at −18° C. for quantitative analysis of test compound levels. The right hemisphere was rinsed with phosphate-buffered saline (PBS) buffer and immediately frozen on dry ice and stored at −80° C. until homogenization for biochemical assays.
(§4) Mouse brains from non-transgenic animals were resuspended in 8 volumes of 0.4% DEA (diethylamine)/50 mM NaCl containing protease inhibitors (Roche-11873580001 or 04693159001) per gram of tissue, e.g. for 0.158 g brain, add 1.264 ml of 0.4% DEA. All samples were homogenized in the FastPrep-24 system (MP Biomedicals) using lysing matrix D (MPBio #6913-100) at 6 m/s for 20 seconds. Homogenates were centrifuged at 20800×g for 5 min and supernatants collected. Supernatants were centrifuged at 221.300×g for 50 min. The resulting high speed supernatants were then transferred to fresh eppendorf tubes. Nine parts of supernatant were neutralized with 1 part 0.5 M Tris-HCl pH 6.8 and used to quantify Aβ.
(§5) To quantify the amount of Aβ42, Aβ40, Aβ38, and Aβ37 in the soluble fraction of the brain homogenates, simultaneous specific detection of Aβ42, Aβ40, Aβ38, and Aβ37 was performed using MSD's electro-chemiluminescence multiplex detection technology. In this assay purified monoclonal antibodies specific for Abeta37 (JRD/Aβ37/3), Abeta38 (J&JPRD/Aβ38/5), Abeta40 (JRF/cAβ40/28), and Abeta42 (JRF/cAβ42/26) were coated on MSD 4-plex plates. Briefly, the standards (a dilution of synthetic Aβ42, Aβ40, Aβ38, and Aβ37) were prepared in 1.5 ml Eppendorf tube in Ultraculture, with final concentrations ranging from 10000 to 0.3 pg/m. The samples and standards were co-incubated with Sulfo-tag labelled JRF/rAβ/2 antibody to the N-terminus of Aβ as detector antibody. 50 μl of conjugate/sample or conjugate/standards mixtures were then added to the antibody-coated plate. The plate was allowed to incubate overnight at 4° C. in order to allow formation of the antibody-amyloid complex. Following this incubation and subsequent wash steps the assay was finished by adding read buffer according to the manufacturer's instructions (Meso Scale Discovery, Gaitherburg, Md.).
(§6) The SULFO-TAG emits light upon electrochemical stimulation initiated at the electrode. MSD Sector instrument SI6000 was used for signal read-out.
The results are shown in Table 5 (dose 30 mg/kg oral dosing) (value for untreated animals as control (Ctrl) was set at 100): […]

[2] = test system: Aβ42; test: In vivo efficacy: brain soluble Aβ42 in non-transgenic rodents (MSD electrochemiluminescence multiplex); parameters: species or system mouse; conditions: Mus musculus, po, 4 h, dose 30 mg/kg oral dosing, brain soluble fraction, animals sacrificed after 4 h, untreated animals (Ctrl) set at 100, read-out: Aβ42 (% vs Ctrl)_Mean
From the text: as §1, §2, §3, §4, §5, §6
In this model a Aβ42 lowering compared to untreated animals would be advantageous, in particular a Aβ42 lowering with at least 10%, more in particular a Aβ42 lowering with at least 20%. […]

[3] = biological target: T1, γ-secretase (Homo sapiens, UniProt P49768); test: Screening for γ-secretase-modulating activity: Aβ42 in supernatant of SKNBE2 cells carrying hAPP 695 wild type (Alphalisa); assay type: cell-based; conditions: SKNBE2 human neuroblastoma cells carrying hAPP 695 wild type, overnight incubation, Aβ42 in cell supernatant
T1 construct: endogenous in cells; host or cells: SKNBE2 human neuroblastoma cells (carrying hAPP 695 wild type as substrate)
Summary of the method: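 SKNBE2 neuroblastoma cells expressing wild-type hAPP 695 plated at 10^4 cells/well in Ultraculture with test compound, incubated overnight at 37° C. Aβ42 (C-terminal/N-terminal antibody pair) and Aβtotal (N-terminal/4G8 pair) in supernatant quantified by AlphaLISA. IC50 from 4-parameter fit of percent of compound-free control.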

SMILES	response vs control in vivo at 30 mg/kg [1] [%]	response vs control in vivo at 30 mg/kg [2] [%]	IC50 [3] [nM]
COc1cccc(CN2C(=O)c3ccc(-n4cnc(C)c4)c(=O)n3C[C@H]2C)c1 [compound 132]	121	104	2140
Cc1cn(-c2ccc3n(c2=O)C[C@@H](C)N(Cc2ccc(F)c(F)c2)C3=O)cn1 [compound 133]	77	87	1510
Cc1cn(-c2ccc3n(c2=O)C[C@@H](C)N(Cc2cc(CC(F)(F)F)cc(C(F)(F)F)c2)C3=O)cn1 [compound 134]	115	97	100
Cc1cn(-c2ccc3n(c2=O)C[C@@H](C)N(Cc2cc(OC(F)(F)F)cc(C(F)(F)F)c2)C3=O)cn1 [compound 140]	71	42	60
Cc1cn(-c2ccc3n(c2=O)C[C@@H](C)N(Cc2cc(Br)cc(C(F)(F)F)c2)C3=O)cn1 [compound 145]	92	71	110
Cc1cn(-c2cc(F)c3n(c2=O)C[C@@H](C)N(Cc2cc(C(F)(F)F)cc(C(F)(F)F)c2)C3=O)cn1 [compound 158]	98	97	460
Cc1cn(-c2ccc3n(c2=O)C[C@@H](C)N(Cc2cc(OCC(F)(F)F)cc(C(F)(F)F)c2)C3=O)cn1 [compound 166]	107	64	50
Cc1cn(-c2ccc3n(c2=O)C[C@@H](C)N(Cc2c[nH]c4cc(F)c(Cl)cc24)C3=O)cn1 [compound 195]	135	105	30
